The values below come from patent US6642273B2, “Unsaturated derivatives at the 4-position of 6-tert-butyl-1,1-dimethylindane and their use in human and veterinary medicine and in cosmetics” (Galderma Research & Development, priority 1997, dated 2003).

In the case of `C=C(c1ccsc1C=O)c1cc(C(C)(C)C)cc2c1CCC2(C)C` [Example 9, 3-[1-(6-tert-Butyl-1,1-dimethylindan-4-yl)ethen-1-yl]-thiophene-2-carboxaldehyde], the melting point is 99 to 100 °C.

As to `C=C(c1ccsc1C(=O)O)c1cc(C(C)(C)C)cc2c1CCC2(C)C` [Example 10, 3-[1-(6-tert-Butyl-1,1-dimethylindan-4-yl)ethen-1-yl]-thiophene-2-carboxylic Acid], the melting point is 146 to 148 °C.

The compound `C=C(c1cc(C(C)(C)C)cc2c1CCC2(C)C)c1sccc1C=O` [Example 11, 2-[1-(6-tert-Butyl-1,1-dimethylindan-4-yl)ethen-1-yl]-thiophene-3-carboxaldehyde] yielded a melting point of 148 to 150 °C.

Turning to `C=C(c1cc(C(C)(C)C)cc2c1CCC2(C)C)c1sccc1C(=O)O` [Example 12, 2-[1-(6-tert-Butyl-1,1-dimethylindan-4-yl)ethen-1-yl]-thiophene-3-carboxylic Acid], the melting point fell in the range of 148 to 150 °C.

A word on the melting point: it is the temperature of the solid-liquid transition.
